Data: patent US8546421B1, “Oncogenic-RAS-signal dependent lethal compounds” (The Trustees of Columbia University in the City of New York, priority 2007, dated 2013)
Several values for one entry are separate records, joined by “and”; a condition that tells them apart may be missing. Equal values may be shown once. Where a name gives a salt, the structure may show the parent alone.

Key:
[1] = tested on: BJ cell system (BJ-TERT, BJ-TERT/LT/ST, BJ-TERT/LT/ST/RAS^V12, DRD cells); assay: Alamar blue potency and selectivity in the engineered BJ cell system; conditions: for growth inhibitory activity and selectivity in the BJ cell system (in words): alamar blue, structural analogs and hits; for activity of analogs of Compound 27, percent growth inhibition (in words): cell viability assay, SAR of Compound 27
Procedure: Empty “step-daughter plates” were filled with 50 μL DMEM, except for columns 3 and 13, where 100 μL of hit compound solution were cherry-picked from daughter plates. After compound transfer, 2-fold dilution series across columns 3 through 12 and columns 13 through 22 was made by transferring 50 μL of compound solution to the next column successively (10-point dilution series), with extensive mixing. Hit-picking and 2-fold dilution series were carried out using Biomek FX Span-8 module (Beckman Coulter). Assay plates were prepared by seeding 1,000 BJ-TERT, BJ-TERT/LT/ST, and BJ-TERT/LT/ST/RAS^V12 cells per well in 36 μL growth medium. Cells in assay plates were treated with compounds from step-daughter plates by transferring 4 μL. The final concentration of the compound was 5.33 μg/mL to 0.01 μg/mL in this 10-point, 2-fold dilution series. Assay plates were returned to the culture incubator and maintained for 48 hours before adding alamar blue.
Fresh daughter plates were made from the mother plate and cherry-picked hits from the first round, 2-fold dilution series experiment as described above. Assay plates were prepared by seeding 1,000 BJ-TERT, BJ-TERT/LT/ST, BJ-TERT/LT/ST/RAS^V12 or BJ-TERT/p53DD/CDK4/cyclinD1/ST/RAS^V12 (DRD) cells per well in 32 μL growth media. Cells in the assay plates were treated with compounds from the step-daughter plate by transferring 8 μL solution. The final concentration of the compound was 10.66 μg/mL to 0.02 μg/mL in a 10-point, 2-fold dilution series manner. Assay plates were returned to the culture incubator and maintained for 48 hours before adding alamar blue.
Cells were seeded in 384-well assay plates, treated with candidate compounds, and incubated in the culture incubator in 40 μL culture volume per well. […] Plates were incubated further for 16 hours to allow reduction of alamar blue, which results in the generation of red fluorescence. The fluorescence intensity was determined using a Victor 3 plate reader (Perkin Elmer) with a 535 nm excitation filter and a 590 nm emission filter.
In the subsequent two-fold dilution series testing, selectivity was calculated as the ratio of GI50 values in BJ-TERT/LT/ST and BJ-TERT/LT/ST/RAS^V12 cells. […] DRD cells are also derived from BJ primary cells and the effects of mutations in both lines should be similar.

[2] = tested on: BJeH, BJeHLT, BJeLR and DRD cells; assay: Cell growth inhibition by stereoisomers of Compound 27; conditions: for cell growth inhibition (in words): BJeH, BJeHLT, BJeLR, DRD cells
[3] = tested on: cellular iron in BJ-TERT/LT/ST/RAS^V12 cells; assay: Cellular iron level by flow cytometry with Phen Green SK; type: cell-based, human; conditions: 24 hours treatment
Procedure: Cells were seeded in 6-well plates (200,000 cells per well) in BJ medium. The next day, the cell monolayer was washed with phosphate buffered saline (“PBS”) twice and stained with 5 μM of Phen Green SK, diacetate (Molecular Probe, cat.#P14313) in PBS by incubating the plate for 15 minutes in a culture incubator. Cells were released with trypsin/EDTA, harvested in 2 mL PBS, and centrifuged at 1,000 rpm for 5 min. The cell pellet was re-suspended in 1 mL of PBS, the cell suspension was transferred to disposable FACS tubes, and the fluorescence profile of the sample was monitored using a FACSCalibur system (BD Biosciences).

[4] = tested on: PARP-1 cleavage in BJ-TERT/LT/ST/RAS^V12 cells; assay: Western blot of PARP-1 cleavage upon compound treatment; type: cell-based, human; conditions: Western blot with anti-PARP-1 antibody
Procedure: 2×10^6 BJ-TERT/LT/ST/RAS^V12 cells were seeded in 10 cm dishes and treated with 1 μM staurosporine, 10 μg/mL erastin, 20 μg/mL Compound 3, and 1 μg/mL Compound 27 for 16 h. Both dying cells and live cells in each 10 cm dish were harvested and collected in the same 15 mL tubes by centrifuging cell suspension at 1,000 rpm for 5 min. Cell pellets were washed three times with PBS and cells were lysed in 200 μL of denaturing lysis buffer (50 mM HEPES KOH [pH 7.4], 40 mM NaCl, 2 mM EDTA, 1.5 mM Na3VO4, 50 mM NaF, 10 mM sodium pyrophosphate, 10 mM sodium β-glycerophosphate, 0.5% Triton X-100, and protease inhibitor tablet [Roche, cat.#11836170001]). Protein content was quantified using a Bio-Rad protein assay reagent (Bio-Rad, cat.#500-00006). Equal amounts of protein were resolved on SDS-polyacrylamide gels. The electrophoresed proteins were transblotted onto a PVDF membrane, blocked with 5% milk, and incubated with rabbit primary antibodies specific to: PARP (Santa Cruz, cat.#sc-7150), cleaved caspase-3 (Cell Signaling Technology, cat.#9661) overnight at 4° C. The membrane was then incubated in IRDye 800 goat anti-rabbit antibody (Li-cor Bioscience cat.#926-32211) at 1:3,000 dilutions for 45 min at room temperature. After washing off the unbound antibodies, membranes were scanned using the Odyssey™ Imaging System (Li-cor Bioscience).

[5] = tested on: Calu-1 cells expressing shRNAs targeting HRAS, NRAS or KRAS; assay: Drug sensitivity after shRNA knockdown of RAS; type: cell-based, human; conditions: alamar blue
Procedure: On day one, 3×10^5 Calu-1 cells or 2×10^5 HT1080 cells were seeded in 10-cm dishes; on day 2, frozen virus stock was thawed at 37° C., hexadimethrine bromide (polybrene) (Sigma, cat.#H9268) was added to the virus solution at a final concentration of 8 μg/mL and growth media from cell culture was replaced with the virus/polybrene mixture. The culture was returned to the tissue culture incubator for 2 hours, with rocking of the dishes every 30 min in order to prevent drying. After 2 h, 10 mL growth medium was added, the culture was incubated for 2 days, and cells stably expressing shRNA were selected by adding puromycin (Sigma, cat.#P9620) at a final concentration of 1.5 μg/mL.
On the day of experiment, assay plates were prepared by seeding 3,000 HT1080, HT1080-pLKO, HT1080-TfR1 KD, Calu-1, Calu-1-pLKO, or Calu-1-509 cells per well in 36 μL of growth media to black, clear bottom 384-well plates. Also, assay plates were prepared by seeding 1,500 shRNA infected HT1080 or Calu-1 cells per well. Cells in assay plates were treated with each lethal compound in a 2-fold dilution series by transferring 4 μL solution from a 10× lethal plate of Erastin, Compound 3, Compound 27, or Compound 36. […] Percent growth inhibition (% GI) was calculated using fluorescence intensity values.

UO-31 = assay: NCI60 anti-cancer screening
HL-60(TB) [6] = conditions: Leukemia
HT1080 = assay: Alamar Blue assay, additional cell lines; type: cell-based, human
Excerpt: (§1) The results of this additional testing are summarized in Tables 7-10 (no additional cell lines were identified as sensitive for Compound 3). […] The tumor type, cell line, maximum percentage inhibition, the concentration of compound required to inhibit cell growth by 50%, and RAS mutation (if any) are also summarized.

Calu-1 = assay: Alamar Blue assay, additional cell lines; type: cell-based, human; conditions: Calu-1, Non-small cell lung carcinoma, Alamar Blue
Excerpt: as §1

[7] = tested on: BJELR (Foreskin fibroblasts w/ TERT, LT, ST, RAS); assay: Alamar Blue assay, additional cell lines; type: cell-based, human
Excerpt: as §1

CAKI-1 = assay: NCI60 anti-cancer screening; conditions: Homo sapiens
786-0 = assay: NCI60 anti-cancer screening
HL-60(TB) [8] = assay: cells; conditions: Homo sapiens
RXF393 = assay: NCI60 anti-cancer screening
ACHN = assay: NCI60 anti-cancer screening
SK-LMS-1 = assay: Alamar Blue assay, additional cell lines; type: cell-based; conditions: Leimyosarcoma, vulva
Excerpt: as §1

SK-ES-1 = assay: Alamar Blue assay, additional cell lines; type: cell-based; conditions: anaplastic osteosarcoma
Excerpt: as §1

TC71 = assay: Alamar Blue assay, additional cell lines; type: cell-based
Excerpt: as §1

HeLa = assay: Alamar Blue assay, additional cell lines; type: cell-based; conditions: Cervical carcinoma
Excerpt: as §1

U-2 OS = assay: Alamar Blue assay, additional cell lines; type: cell-based; conditions: Osteosarcoma
Excerpt: as §1

MES-CA = assay: Alamar Blue assay, additional cell lines; type: cell-based; conditions: Uterine sarcoma
Excerpt: as §1

U973 = assay: Alamar Blue assay, additional cell lines; type: cell-based
Excerpt: as §1

SK-UT = assay: Alamar Blue assay, additional cell lines; type: cell-based; conditions: Uterine, mixed mesodermal tumor
Excerpt: as §1

TC32 = assay: Alamar Blue assay, additional cell lines; type: cell-based
Excerpt: as §1

K-562 = assay: NCI60 anti-cancer screening

SMILES: COC(=O)C1Cc2c([nH]c3ccccc23)C(C)(C)N1C(=O)CCl (stereo not shown) [Compound 28]
- growth inhibitory activity and selectivity in the BJ cell system (in words) [1]: virtually the same activity and selectivity

SMILES: COC(=O)c1ccc([C@H]2c3[nH]c4ccccc4c3C[C@H](C(=O)OC)N2C(=O)CCl)cc1 [1S,3R Compound 27]
- cell growth inhibition (in words) [2]: strong cell growth inhibition in two cell lines
- EC50 ([2]; Homo sapiens): ~0.005 µg/mL and ~10 nM
- selective lethality (in words) ([2]; mutant HRAS BJ tumor cell lines versus isogenic cell lines lacking oncogenic HRAS): selective lethality towards BJ tumor cell lines containing mutant HRAS

SMILES: CC(=O)N(O)CCCCCNC(=O)CCC(=O)N(O)CCCCCNC(=O)CCC(=O)N(O)CCCCCN [DFOM, deferoxamine mesylate]
- change of cellular iron level (PGSK fluorescence) [3]: induced a peak shift in the fluorescence profile

SMILES: CN[C@@H]1C[C@H]2O[C@@](C)([C@@H]1OC)n1c3ccccc3c3c4c(c5c6ccccc6n2c5c31)C(=O)NC4 [staurosporine, reference compound]
- PARP-1 cleavage / type of cell death [4]: showed PARP-1 cleavage
- sensitivity of Calu-1 cells after RAS shRNA compared with parental cells [5]: loss of sensitivity to staurosporine was not observed

SMILES: COC(=O)c1ccc([C@@H]2c3[nH]c4ccccc4c3C[C@H](C(=O)OC)N2C(=O)CCl)cc1 [1R,3R Compound 27]
- cell growth inhibition (in words) [2]: no appreciable growth inhibition

SMILES: COC(=O)c1ccc([C@H]2c3[nH]c4ccccc4c3C[C@@H](C(=O)OC)N2C(=O)CCl)cc1 [(1S,3S) Compound 27]
- cell growth inhibition (in words) [2]: no appreciable growth inhibition

SMILES: CCOc1ccccc1-n1c(C(C)N2CCN(C(=O)COc3ccc(Cl)cc3)CC2)nc2ccccc2c1=O (stereo not shown) [Erastin, reference compound]
- GI50 (UO-31; Homo sapiens, UO-31): 373 nM
- CC50 (UO-31; Homo sapiens, UO-31, read-out: LC 50%): > 10 µM
- GI 100% (UO-31; UO-31, Renal Cancer): 1.63 µM
- GI 100% (HL-60(TB) [6]): >10 µM
- Maximum Inhibition % (HT1080; Fibrosarcoma): 98%
- GI50 (HT1080; Homo sapiens, HT-1080, Fibrosarcoma): 2000 nM
- Maximum Inhibition % (Calu-1): 100%
- GI50 (Calu-1; Homo sapiens): 6 µM
- Maximum Inhibition % [7]: 100%
- GI50 ([7]; Homo sapiens): 6 µM
- GI50 (CAKI-1; CAKI-1): 2150 nM
- CC50 (CAKI-1; CAKI-1, read-out: LC 50%): > 10 µM
- GI 100% (786-0; 786-0, Renal Cancer): 4.12 µM
- GI50 (786-0; Homo sapiens, 786-0): 2030 nM
- CC50 (786-0; Homo sapiens, 786-0, read-out: LC 50%): 8.36 µM
- GI50 (HL-60(TB) [8]; HL-60): 2260 nM
- CC50 (HL-60(TB) [8]; HL-60, read-out: LC 50%): > 10 µM
- GI50 (RXF393; Homo sapiens, RXF 393): 2160 nM
- CC50 (RXF393; Homo sapiens, RXF 393, read-out: LC 50%): > 10 µM
- GI 100% (RXF393; RXF393, Renal Cancer): 7.2 µM
- GI50 (ACHN; Homo sapiens): 979 nM
- CC50 (ACHN; Homo sapiens, read-out: LC 50%): 6.3 µM
- GI 100% (ACHN; Renal Cancer): 2.5 µM
- GI50 (SK-LMS-1; Homo sapiens): 6 µM
- Maximum Inhibition % (SK-LMS-1): 100%
- Maximum Inhibition % (SK-ES-1; Ewing sarcoma): 98%
- GI50 (SK-ES-1; Homo sapiens, SK-ES1, Ewing sarcoma): 7 µM
- Maximum Inhibition % (TC71; Ewing sarcoma): 92%
- GI50 (TC71; TC-71, Ewing sarcoma): 10 µM
- Maximum Inhibition % (HeLa): 94%
- GI50 (HeLa; Homo sapiens): 600 nM
- GI50 (U-2 OS; Homo sapiens, U2OS): 6 µM
- Maximum Inhibition % (U-2 OS): 96%
- GI50 (MES-CA): 3000 nM
- Maximum Inhibition % (MES-CA): 100%
- Maximum Inhibition % (U973; Acute myelogenous leukemia): 73%
- GI50 (U973; U-973, Acute myelogenous leukemia): 10 µM
- GI50 (SK-UT): 4 µM
- Maximum Inhibition % (SK-UT): 73%
- GI50 (TC32; Homo sapiens, TC-32, Peripheral neuroepithelioma): 8 µM
- Maximum Inhibition % (TC32; Peripheral neuroepithelioma): 88%
- GI50 (K-562; Homo sapiens, K562): 3.39 µM
- CC50 (K-562; Homo sapiens, K562, read-out: LC 50%): > 10 µM
- GI 100% (K-562; K-562, Leukemia): >10 µM

SMILES: COC(=O)c1ccc([C@@H]2c3[nH]c4ccccc4c3C[C@@H](C(=O)OC)N2C(=O)CCl)cc1 [(1R,3S) Compound 27]
- cell growth inhibition (in words) [2]: no appreciable growth inhibition

SMILES: C=CC(=O)N1C(C(=O)OC)Cc2c([nH]c3ccccc23)C1c1ccc(C(=O)OC)cc1 (stereo not shown) [acryl analog]
- activity of analogs of Compound 27, percent growth inhibition (in words) [1]: insufficiently active

SMILES: O=C(NN=Cc1c(O)ccc2ccccc12)c1ccncc1 [Compound 311]
- change of cellular iron level (PGSK fluorescence) [3]: induced a peak shift in the fluorescence profile

SMILES: COC(=O)C1Cc2c([nH]c3ccccc23)C(c2ccc(NC(=O)CCCCCNC(=O)CCCCC3SCC4NC(=O)NC43)cc2)N1C(=O)CCl (stereo not shown) [biotinylated analog of Compound 27]
- activity of analogs of Compound 27, percent growth inhibition (in words) [1]: not sufficiently active

SMILES: COC(=O)C1=C(C)NC2=C(C(=O)CC(c3ccc(Cl)cc3)C2)C1c1ccccc1F (stereo not shown) [Compound 5]
- growth inhibitory activity and selectivity in the BJ cell system (in words) [1]: varied potency and selectivity
